Values belong to the compound of their own block, whether it stands above or below them.
Assays:
[1] = Stability of the radioligand in formulation; type: physicochemical; details: 9% ethanol in PBS, pH 7.4
Procedure: Carbon-11 labeled radioligands for in vivo PET imaging studies are typically produced in giga-becquerel quantities. As our goal was to develop a synthesis methodology suitable for routine radioligand production, the [^11C]AZD2423 synthesis process was fully automated to improve its reliability and reproducibility. The complete process was performed using a previously described [^11C]CO prototype synthesis apparatus (GEMS, Uppsala, Sweden), which included the initial formation of the crude [^11C]AZD2423 product, followed by its isolation by semipreparative high-performance liquid chromatography (HPLC), solid-phase extraction (SPE), and sterile filtration to yield the formulated product. Using these conditions, [^11C]AZD2423 was prepared with radioactivities exceeding 1 GBq and the radiochemical purity (RCP) was greater than 99%. The synthesis process took approximately 40 min, and the molar activity (Am) at the time of injection ranged from 15 to 20 GBq/μmol (405 to 540 Ci/mmol). […] The average radiochemical yield for the synthesis of [^11C]AZD2423 was 7.4 ± 0.6% (n = 4, relative to the [^11C]CO2 at the start of synthesis). The identity of the labeled compound was verified by co-injecting it with a reference standard.

CCR2 [2] = target: T1, CCR2 (Macaca mulatta, UniProt O18793); assay: PET imaging in non-human primates at baseline and after pretreatment with AZD2423; type: in vivo, rhesus monkeys; details: for SUVpeak brain: iv; for Average VT parotid gland / Average VT thyroid gland: two-tissue compartment analysis
T1 construct: from tissue; host or cells: living rhesus monkeys: brain, thyroid gland, parotid gland, submandibular gland
T1 sequence (O18793 1-360): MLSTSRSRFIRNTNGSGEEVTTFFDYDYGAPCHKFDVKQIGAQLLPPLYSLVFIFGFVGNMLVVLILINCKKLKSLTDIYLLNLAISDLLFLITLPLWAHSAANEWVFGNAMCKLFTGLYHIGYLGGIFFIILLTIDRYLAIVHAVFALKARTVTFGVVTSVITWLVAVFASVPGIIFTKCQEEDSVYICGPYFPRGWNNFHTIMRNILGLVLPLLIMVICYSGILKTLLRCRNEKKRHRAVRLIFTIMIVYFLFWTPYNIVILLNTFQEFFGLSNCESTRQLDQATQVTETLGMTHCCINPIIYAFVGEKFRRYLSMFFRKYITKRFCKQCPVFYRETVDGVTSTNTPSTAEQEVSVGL
Procedure: To evaluate the brain exposure and regional distribution of [^11C]AZD2423 in non-human primate (NHP) brains, PET imaging studies were carried out. Thus, two 123 min dynamic brain PET measurements were performed at baseline and after pretreatment with unlabeled AZD2423 (3 mg/kg), respectively.
PET experiments were conducted on two anesthetized healthy rhesus monkeys weighing 5.3 and 4.7 kg. The study received approval from the Stockholm Animal Research Ethical Committee (Dnr. N452/11) and is comprehensively described in Dahl et al.. Anesthesia was induced via an intramuscular injection of ketamine hydrochloride (approximately 10 mg/kg, Ketalar, Pfizer AB, Stockholm, Sweden) and maintained with a mixture of sevoflurane (2–8%, Abbott Scandinavia AB, Solna, Sweden), oxygen (around 40%), and medical air following endotracheal intubation. The anesthesia level was continuously monitored during the experiment. The head was stabilized using a fixation device, and the body temperature was regulated with a Bair Hugger model 505 (Arizant Healthcare, St. Paul, MN, USA), with continuous monitoring via an esophageal thermometer. ECG, heart rate, blood pressure, respiratory rate, and oxygen saturation were all continuously monitored throughout the experiments.
Two PET measurements were performed on the same experimental day in each of the two monkeys. Baseline PET measurements were conducted using [^11C]AZD2423 with doses of 164 MBq and 157 MBq. A pretreatment PET measurement was also performed, during which an infusion of unlabeled AZD2423 (3.0 mg/kg) occurred over 10 min, starting 30 min before the injection of [^11C]AZD2423 (90 MBq and 158 MBq). In each PET experiment, the radioligand was administered as an intravenous bolus injection over 5 s, coinciding with the start of PET data acquisition. Radioactivity in the brain was continuously measured for 123 min using the high-resolution research tomograph (HRRT; Siemens Molecular Imaging, Knoxville, TN, USA), following a preprogrammed sequence of 34 frames. Arterial blood samples were collected at specified time points (4, 15, 30, 45, and 90 min) and analyzed for radioactivity in blood and plasma, as well as for the presence of the remaining parent compound, [^11C]AZD2423.
The Regions of Interest (ROIs) were delineated manually on MRI images of each NHP for the whole brain, thyroid gland, parotid gland, and submandibular gland. The summed PET images of the entire duration were co-registered with the MRI image of the individual NHP. After applying the co-registration parameters to the dynamic PET data, time–activity curves were generated for all ROIs for each PET measurement. The average SUV was calculated for each ROI. Target occupancy was estimated using the volume of distribution (VT) calculated by a two-tissue compartment model (2TC) with metabolite-corrected plasma radioactivity.

[3] = Radiometabolite analysis in arterial plasma; type: in vivo, rhesus monkeys
Procedure: To measure parent radioligand and radiometabolites in plasma, discrete arterial blood samples were drawn at five time points after the injection of [^11C]AZD2423. The radioligand was metabolized rather slowly (Figure 5). At 10 min after injection, approximately 80% of the radioactivity in plasma represented parent radioligand, decreasing to approximately 60% at 90 min. Most radiometabolites detected in plasma eluted with a retention time (tR) of 2.1–2.7 min and were thus less lipophilic than [^11C]AZD2423 (tR = 3.0 min). However, one metabolite with a longer retention time (tR = 3.5 min) was formed (see Supporting Information). These metabolites were not identified and further work would be required to fully characterize these unknown radiometabolites. […]
Two PET measurements were performed on the same experimental day in each of the two monkeys. […] Radioactivity in the brain was continuously measured for 123 min using the high-resolution research tomograph (HRRT; Siemens Molecular Imaging, Knoxville, TN, USA), following a preprogrammed sequence of 34 frames. Arterial blood samples were collected at specified time points (4, 15, 30, 45, and 90 min) and analyzed for radioactivity in blood and plasma, as well as for the presence of the remaining parent compound, [^11C]AZD2423.
Method description and representative radioactivity HPLC trace for radiometabolite analysis. […]

CCR2 [4] = test system: CCR2; parameters: method as in PMID 23523116, PMID 29913894; details: no method in this paper; read-out: CCR2 IC50 (affinity); cited from earlier work
CCR1 = test system: CCR1; parameters: method as in PMID 23523116, PMID 29913894; details: no method in this paper; cited from earlier work
CCR5 = test system: CCR5; parameters: method as in PMID 23523116, PMID 29913894; details: no method in this paper; cited from earlier work
Other GPCR = test system: Other GPCR; parameters: method as in PMID 23523116, PMID 29913894; details: no method in this paper; cited from earlier work
[5] = parameters: method as in PMID 23523116, PMID 29913894; details: no method in this paper; cited from earlier work
[6] = parameters: method as in PMID 26116114; details: brain tissue in vitro; cited from earlier work
CCR2 [7] = test system: CCR2; parameters: method as in PMID 33205603; details: cited from earlier work
[8] = pretreatment AZD2423 3 mg/kg relative to baseline
[9] = pretreatment AZD2423 3.0 mg/kg relative to baseline
[10] = pretreatment AZD2423 3 mg/kg, n = 2

stability in formulation [1]: up to 60 min
SUVpeak brain (CCR2 [2]; NHP, after pretreatment with unlabeled AZD2423 3 mg/kg, n = 2): 0.4
SUVpeak brain (CCR2 [2]; NHP, baseline, n = 2): 0.4
SUVpeak parotid gland (CCR2 [2]; NHP, baseline, n = 2): 3.4
SUVpeak submandibular gland (CCR2 [2]; NHP, baseline, n = 2): 4.4
SUVpeak thyroid gland (CCR2 [2]; NHP, baseline, n = 2): 3.3
Average VT parotid gland (CCR2 [2]; baseline, n = 2): 111.1
Average VT thyroid gland (CCR2 [2]; baseline, n = 2): 53.1
Percentage decrease of VT parotid gland (CCR2 [2]; [8]): 62.6%
Percentage decrease of VT thyroid gland (CCR2 [2]; [8]): 63.4%
Percentage reduction of binding in the parotid gland (AUC ratio) (CCR2 [2]; [9]): 51.2%
Percentage reduction of binding in the submandibular gland (AUC ratio) (CCR2 [2]; [9]): 49%
Average VT parotid gland (CCR2 [2]; [10]): 41.6
Average VT thyroid gland (CCR2 [2]; [10]): 19.4
Parent radioligand, share of radioactivity in plasma ([3]; 10 min after iv injection): approximately 80%
Parent radioligand, share of radioactivity in plasma ([3]; 90 min after iv injection): approximately 60%
Structure (SMILES): CC(C)(C)N1CCNC(C(=O)N2CCN([11C](=O)Nc3ccc(Cl)c(F)c3)CC2)C1 (stereo not drawn) [[^11C]AZD2423]
IC50 (CCR2 [4]): 2.6 nM
IC50 (CCR1): > 10000 nM
IC50 (CCR5): > 510 nM
Selectivity over other GPCR (Other GPCR): > 500 fold
LogD [5]: 1.85
pKa [5]: 7.9
Fu (brain) / brain slice distribution [6]: 0.045

Structure (SMILES): CN(CCc1ccc(NC(=O)C2=Cc3cc(-c4ccc(OCCCCC[18F])cc4)ccc3CCC2)cc1)C1CCOCC1 [[^18F]6b]
in vitro affinity to CCR2 (CCR2 [7]): 14 nM

Structure (SMILES): CC(C)(C)N1CCNC(C(=O)N2CCN(C(=O)Nc3ccc(Cl)c(F)c3)CC2)C1 (stereo not drawn) [AZD2423]
IC50 (CCR2 [4]): 2.6 nM
LogD [5]: 1.85
Fu (brain) / brain slice distribution [6]: 0.045

Reference: PMC11858205, “Radiolabeling and Preliminary In Vivo Evaluation of the Candidate CCR2 Targeting PET Radioligand [^11C]AZD2423” (Pharmaceuticals, 2025)
